Measured values published in the supplement of paper PMC10307832.

What was measured:
Test in all cases: relative viability (nuclei count vs DMSO), 5 days (fraction); higher = more cells survive
Crenolanib + Luminespib = compound: CC1(COc2ccc3c(c2)ncn3-c2ccc3cccc(N4CCC(N)CC4)c3n2)COC1 [Crenolanib] + CCNC(=O)c1noc(-c2cc(C(C)C)c(O)cc2O)c1-c1ccc(CN2CCOCC2)cc1 [Luminespib] (partner 0.01 µM)
Outline: (§1)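 Cells from lung cancer lines were seeded into 1536-well plates and, one day later, dosed by pin tool. Treatments were either a single drug or a fixed dose of an anchor drug with five library-drug doses (not always all listed) in √10 steps. After 5 days, nuclei were stained in a one-step fixation (final 0.05% Triton X-100, 1% formaldehyde, 1 ug/ml Hoechst) and counted on 4× images, and relative viability is the treated-to-vehicle nuclei ratio, as the median of duplicate plates.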

Crenolanib + Pictilisib = compound: CC1(COc2ccc3c(c2)ncn3-c2ccc3cccc(N4CCC(N)CC4)c3n2)COC1 [Crenolanib] + CS(=O)(=O)N1CCN(Cc2cc3nc(-c4cccc5[nH]ncc45)nc(N4CCOCC4)c3s2)CC1 [Pictilisib] (partner 1 µM)
Outline: as §1

Tivantinib + OSI-027 = compound: O=C1NC(=O)[C@@H](c2cn3c4c(cccc24)CCC3)[C@@H]1c1c[nH]c2ccccc12 [Tivantinib] + COc1cccc2cc(-c3nc([C@H]4CC[C@H](C(=O)O)CC4)n4ncnc(N)c34)[nH]c12 [OSI-027] (partner 0.5 µM)
Outline: as §1

Tivantinib + AZD7762 = compound: O=C1NC(=O)[C@@H](c2cn3c4c(cccc24)CCC3)[C@@H]1c1c[nH]c2ccccc12 [Tivantinib] + NC(=O)Nc1cc(-c2cccc(F)c2)sc1C(=O)N[C@H]1CCCNC1 [AZD7762] (partner 0.2 µM)
Outline: as §1

Cell Line | relative viability (Crenolanib + Luminespib; first compound 0.01 µM) | relative viability (Crenolanib + Luminespib; first compound 0.03162 µM) | relative viability (Crenolanib + Luminespib; first compound 0.1 µM) | relative viability (Crenolanib + Luminespib; first compound 0.3162 µM) | relative viability (Crenolanib + Luminespib; first compound 1 µM) | relative viability (Crenolanib + Pictilisib; first compound 0.01 µM) | relative viability (Crenolanib + Pictilisib; first compound 0.03162 µM) | relative viability (Crenolanib + Pictilisib; first compound 0.1 µM) | relative viability (Crenolanib + Pictilisib; first compound 0.3162 µM) | relative viability (Crenolanib + Pictilisib; first compound 1 µM) | relative viability (Tivantinib + OSI-027; first compound 0.01 µM) | relative viability (Tivantinib + OSI-027; first compound 0.03162 µM) | relative viability (Tivantinib + OSI-027; first compound 0.1 µM) | relative viability (Tivantinib + OSI-027; first compound 0.3162 µM) | relative viability (Tivantinib + AZD7762; first compound 0.01 µM) | relative viability (Tivantinib + AZD7762; first compound 0.03162 µM) | relative viability (Tivantinib + AZD7762; first compound 0.1 µM) | relative viability (Tivantinib + AZD7762; first compound 0.3162 µM)
201T | 1.03 | 1.13 | 1.01 | 1.09 | 1.02 | 0.724 | 0.704 | 0.695 | 0.689 | 0.634 | 0.962 | 0.718 | 0.665 | 0.74 | 0.602 | 0.62 | 0.623 | 0.611
A549 |  |  |  |  |  | 0.608 | 0.545 | 0.554 | 0.689 | 0.506 |  |  |  |  |  |  |  | 
A-427 | 0.84 | 0.828 | 0.916 | 1.01 | 0.816 | 0.747 | 0.674 | 0.642 | 0.582 | 0.651 | 0.556 | 0.413 | 0.487 | 0.456 | 0.792 | 0.829 | 0.749 | 0.651
ABC-1 |  | 0.655 | 0.666 | 0.47 | 0.611 | 0.837 | 0.63 | 0.83 | 0.692 | 0.686 | 0.586 | 0.422 | 0.538 | 0.603 | 0.8 | 0.912 | 0.708 | 0.685
BEN | 0.644 | 0.257 | 0.425 | 0.528 | 0.32 | 0.664 | 0.574 | 0.51 | 0.522 | 0.609 | 0.323 | 0.269 | 0.278 | 0.339 | 0.705 | 0.535 | 0.617 | 0.581
CAL-12T | 0.338 | 0.398 | 0.272 | 0.363 | 0.579 | 0.45 | 0.407 | 0.519 | 0.454 | 0.44 | 0.791 | 0.541 | 0.634 | 0.256 | 0.563 | 0.603 | 0.574 | 0.437
COR-L23 | 0.709 | 0.679 | 0.63 | 0.848 | 0.574 | 0.777 | 0.756 | 0.677 | 1.03 | 0.654 | 0.783 | 0.7 | 0.787 | 0.919 |  |  |  | 
COR-L 105 | 1.12 | 0.973 | 0.743 | 0.859 | 0.732 | 0.455 | 0.363 | 0.341 | 0.514 | 0.411 | 0.838 | 0.378 | 0.581 | 0.363 |  |  |  | 
Calu-6 |  |  |  |  |  | 1.04 | 0.91 | 0.978 | 1.15 | 0.968 |  |  |  |  |  |  |  | 
ChaGo-K-1 | 0.595 | 0.612 | 0.655 | 0.655 | 0.68 | 0.419 | 0.627 | 0.736 | 0.562 | 0.7 | 0.662 | 0.482 | 0.607 | 0.549 | 0.781 | 0.871 | 0.862 | 0.861
EBC-1 |  |  |  |  |  | 0.469 | 0.423 | 0.333 | 0.357 | 0.422 |  |  |  |  |  |  |  | 
EKVX | 0.915 | 0.952 | 0.909 | 1.03 | 0.93 | 0.466 | 0.491 | 0.364 | 0.487 | 0.442 | 0.711 | 0.663 | 0.679 |  | 0.59 | 0.704 | 0.619 | 0.28
EMC-BAC-2 | 1.31 | 1.17 | 1.17 | 1.45 | 1.18 | 0.552 | 0.523 | 0.492 | 0.578 | 0.495 | 0.366 | 0.3 | 0.347 | 0.357 | 1.14 | 1.09 | 1.08 | 1.22
EPLC-272H | 0.371 | 0.574 | 0.366 | 0.168 | 0.319 |  | 0.327 | 0.318 | 0.255 | 0.338 | 0.319 | 0.32 | 0.293 | 0.147 | 0.278 | 0.284 | 0.21 | 0.268
H3255 | 0.963 | 1.06 | 0.986 | 0.917 | 0.854 | 0.461 | 0.475 | 0.479 | 0.559 | 0.496 | 0.711 | 0.551 | 0.571 |  | 0.968 | 0.73 | 0.902 | 
HARA | 0.643 | 0.734 | 0.626 | 0.875 | 0.828 | 0.327 | 0.369 | 0.283 | 0.289 | 0.353 | 0.583 | 0.359 | 0.509 | 0.26 | 0.214 | 0.416 | 0.394 | 0.288
HCC-15 | 0.276 | 0.408 | 0.355 | 0.315 | 0.302 | 0.695 | 0.731 | 0.696 | 0.644 | 0.671 | 0.76 | 0.53 | 0.614 | 0.7 | 1.27 | 1.34 | 1.15 | 1.29
HCC-44 | 1.26 | 0.98 | 1.05 | 0.771 | 0.784 | 0.672 | 0.649 | 0.575 | 0.571 | 0.492 | 0.488 | 0.534 | 0.441 | 0.669 | 1.04 | 1.05 | 1.08 | 0.985
HCC-78 |  |  |  |  |  | 0.24 | 0.223 | 0.239 | 0.216 | 0.237 | 0.36 | 0.37 | 0.367 | 0.32 | 0.688 | 0.786 | 0.651 | 0.425
HCC-366 |  |  |  |  |  | 0.182 | 0.164 | 0.132 | 0.143 | 0.137 | 0.941 | 0.807 | 0.848 | 0.934 | 0.229 | 0.403 | 0.316 | 0.237
HCC-827 | 0.7 | 0.607 | 0.617 | 0.568 | 0.6 | 1.12 | 1.16 | 0.961 | 0.94 | 1.03 | 0.764 | 0.844 | 0.708 | 0.253 | 0.186 | 0.238 | 0.297 | 
